# Like-named read-outs stand apart in the source and are kept apart here.
# How the values were obtained:
# [1] = test system: CYP1A2, CYP2A6, CYP2B6, CYP2C8, CYP2C9, CYP2C19, CYP2D6, CYP2E1, and CYP4A11; assay: Recombinant CYP incubation; type: in vitro ADME, human; conditions: 3 µm ocedurenone, NADPH, 60 min
# CYP3A4 [2] = conditions: ocedurenone at 0.1, 1, or 10 μM, 72 h; inducer criterion 40%
# [3] = 0.5 to 30 mg administered orally; cited from earlier work
# CYP3A4 [4] = biological target: T1, CYP3A4 (Homo sapiens, UniProt P08684); type: in vitro ADME
# T1 sequence (P08684 whole entry): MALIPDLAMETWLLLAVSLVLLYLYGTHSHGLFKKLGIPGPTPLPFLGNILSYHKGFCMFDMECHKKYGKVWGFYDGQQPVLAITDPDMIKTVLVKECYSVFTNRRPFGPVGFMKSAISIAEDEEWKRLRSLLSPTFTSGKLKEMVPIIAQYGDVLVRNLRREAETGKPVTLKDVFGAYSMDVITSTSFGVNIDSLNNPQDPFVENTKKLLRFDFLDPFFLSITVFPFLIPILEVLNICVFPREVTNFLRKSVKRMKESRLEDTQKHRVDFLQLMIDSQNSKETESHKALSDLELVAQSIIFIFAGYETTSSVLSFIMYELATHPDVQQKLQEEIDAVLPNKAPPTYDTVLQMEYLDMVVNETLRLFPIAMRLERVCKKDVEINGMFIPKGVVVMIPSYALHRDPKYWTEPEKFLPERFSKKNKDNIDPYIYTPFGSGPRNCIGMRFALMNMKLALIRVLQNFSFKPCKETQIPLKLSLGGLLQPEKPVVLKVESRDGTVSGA
# CYP2C19 = CYP2C19 (Homo sapiens, UniProt P33261); assay: In vitro P450 inhibition, recombinant CYP2C19; type: in vitro ADME
# CYP2C19, sequence (P33261 whole entry): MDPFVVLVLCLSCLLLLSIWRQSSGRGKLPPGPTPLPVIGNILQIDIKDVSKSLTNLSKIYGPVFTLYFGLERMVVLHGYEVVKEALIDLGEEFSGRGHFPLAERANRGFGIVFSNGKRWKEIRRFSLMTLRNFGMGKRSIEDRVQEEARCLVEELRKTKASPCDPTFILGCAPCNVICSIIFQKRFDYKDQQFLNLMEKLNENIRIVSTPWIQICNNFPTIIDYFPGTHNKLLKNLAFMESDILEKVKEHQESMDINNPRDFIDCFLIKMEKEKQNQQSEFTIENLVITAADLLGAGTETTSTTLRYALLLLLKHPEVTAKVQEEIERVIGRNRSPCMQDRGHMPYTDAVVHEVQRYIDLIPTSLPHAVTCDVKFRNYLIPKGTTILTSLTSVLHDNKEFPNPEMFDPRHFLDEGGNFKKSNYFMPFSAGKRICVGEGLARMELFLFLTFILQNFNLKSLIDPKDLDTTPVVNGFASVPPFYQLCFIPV
# CYP3A4 [5] = biological target: T1, CYP3A4; type: in vitro ADME; conditions: 3 µm ocedurenone, NADPH, 60 min
# OCT2 [6] = biological target: T2, OCT2 (Homo sapiens, UniProt O15244); assay: OCT2 uptake substrate assay; type: in vitro ADME
# T2 sequence (O15244 1-555): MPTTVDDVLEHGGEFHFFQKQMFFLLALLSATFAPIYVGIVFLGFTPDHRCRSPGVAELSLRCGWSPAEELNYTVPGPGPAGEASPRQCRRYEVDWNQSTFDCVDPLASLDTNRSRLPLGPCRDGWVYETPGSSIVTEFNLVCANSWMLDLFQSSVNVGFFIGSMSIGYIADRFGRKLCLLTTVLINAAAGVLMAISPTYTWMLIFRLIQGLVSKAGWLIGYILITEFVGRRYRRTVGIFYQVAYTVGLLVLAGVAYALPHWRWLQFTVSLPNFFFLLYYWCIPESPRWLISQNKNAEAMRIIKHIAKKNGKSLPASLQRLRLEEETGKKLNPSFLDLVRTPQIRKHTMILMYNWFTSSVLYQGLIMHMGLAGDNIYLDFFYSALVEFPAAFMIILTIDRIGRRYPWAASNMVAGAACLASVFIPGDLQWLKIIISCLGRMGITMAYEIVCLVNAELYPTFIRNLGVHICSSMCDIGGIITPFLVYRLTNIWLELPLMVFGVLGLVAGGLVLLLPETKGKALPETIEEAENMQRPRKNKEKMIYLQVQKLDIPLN
# MATE1 [7] = biological target: T3, MATE1 (Homo sapiens, UniProt Q96FL8); assay: MATE1 uptake inhibition assay; type: in vitro ADME
# T3 sequence (Q96FL8 1-570): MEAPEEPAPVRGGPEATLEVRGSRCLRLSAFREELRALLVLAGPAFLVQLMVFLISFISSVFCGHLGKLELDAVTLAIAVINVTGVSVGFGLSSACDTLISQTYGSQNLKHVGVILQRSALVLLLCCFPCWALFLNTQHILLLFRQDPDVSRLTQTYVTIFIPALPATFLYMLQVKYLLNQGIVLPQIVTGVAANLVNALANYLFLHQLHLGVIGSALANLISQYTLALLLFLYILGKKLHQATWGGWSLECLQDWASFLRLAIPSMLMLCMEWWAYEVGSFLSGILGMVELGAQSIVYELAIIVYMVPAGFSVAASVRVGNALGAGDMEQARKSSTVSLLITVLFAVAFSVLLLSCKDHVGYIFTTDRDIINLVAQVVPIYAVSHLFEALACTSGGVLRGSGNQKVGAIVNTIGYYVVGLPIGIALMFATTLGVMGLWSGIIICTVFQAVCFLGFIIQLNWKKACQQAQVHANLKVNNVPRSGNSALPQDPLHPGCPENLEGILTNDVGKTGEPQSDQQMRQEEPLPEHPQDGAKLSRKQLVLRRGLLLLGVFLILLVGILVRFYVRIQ
# human liver microsomes = assay: Human liver microsome incubation with or without chemical enzyme inhibitors; type: in vitro ADME
# MATE1 [8] = biological target: T3, MATE1; assay: MATE1 uptake substrate assay; type: in vitro ADME
# BSEP = BSEP (Homo sapiens, UniProt O95342); assay: BSEP vesicular transport inhibition assay; type: in vitro ADME
# BSEP, sequence (O95342 whole entry): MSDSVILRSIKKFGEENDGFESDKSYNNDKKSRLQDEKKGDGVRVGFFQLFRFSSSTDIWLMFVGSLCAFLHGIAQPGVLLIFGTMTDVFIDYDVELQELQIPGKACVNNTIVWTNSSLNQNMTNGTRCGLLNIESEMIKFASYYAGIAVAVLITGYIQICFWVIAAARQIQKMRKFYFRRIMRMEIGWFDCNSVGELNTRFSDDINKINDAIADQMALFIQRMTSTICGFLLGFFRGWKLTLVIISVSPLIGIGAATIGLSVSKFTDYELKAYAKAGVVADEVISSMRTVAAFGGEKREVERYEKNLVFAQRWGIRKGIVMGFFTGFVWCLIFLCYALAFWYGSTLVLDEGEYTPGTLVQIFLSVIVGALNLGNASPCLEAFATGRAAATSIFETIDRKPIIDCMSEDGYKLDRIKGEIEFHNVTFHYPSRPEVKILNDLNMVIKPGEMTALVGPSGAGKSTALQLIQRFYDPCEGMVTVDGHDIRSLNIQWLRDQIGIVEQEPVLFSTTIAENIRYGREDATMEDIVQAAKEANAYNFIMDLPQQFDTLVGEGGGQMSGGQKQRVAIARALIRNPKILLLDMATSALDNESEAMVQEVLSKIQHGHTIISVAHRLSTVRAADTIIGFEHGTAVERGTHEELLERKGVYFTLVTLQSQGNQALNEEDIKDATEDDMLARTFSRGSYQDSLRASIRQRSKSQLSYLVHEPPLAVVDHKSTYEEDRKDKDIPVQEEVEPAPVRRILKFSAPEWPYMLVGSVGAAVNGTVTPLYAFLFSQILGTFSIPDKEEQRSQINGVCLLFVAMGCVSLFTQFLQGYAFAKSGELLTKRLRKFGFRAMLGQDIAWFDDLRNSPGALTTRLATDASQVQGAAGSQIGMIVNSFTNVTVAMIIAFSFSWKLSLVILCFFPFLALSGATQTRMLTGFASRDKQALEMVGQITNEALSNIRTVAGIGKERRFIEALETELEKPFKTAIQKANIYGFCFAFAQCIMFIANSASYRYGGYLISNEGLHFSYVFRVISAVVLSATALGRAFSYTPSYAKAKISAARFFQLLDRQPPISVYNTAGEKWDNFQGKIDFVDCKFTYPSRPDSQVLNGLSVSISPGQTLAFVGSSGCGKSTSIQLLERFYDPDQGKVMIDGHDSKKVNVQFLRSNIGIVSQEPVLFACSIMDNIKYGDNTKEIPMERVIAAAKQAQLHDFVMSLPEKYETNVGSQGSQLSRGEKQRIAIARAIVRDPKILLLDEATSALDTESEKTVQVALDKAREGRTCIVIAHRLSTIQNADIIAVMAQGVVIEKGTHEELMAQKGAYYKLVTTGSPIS
# BCRP = biological target: T4, BCRP (Homo sapiens, UniProt Q9UNQ0); assay: BCRP monolayer substrate assay; type: in vitro ADME
# T4 sequence (Q9UNQ0 1-655): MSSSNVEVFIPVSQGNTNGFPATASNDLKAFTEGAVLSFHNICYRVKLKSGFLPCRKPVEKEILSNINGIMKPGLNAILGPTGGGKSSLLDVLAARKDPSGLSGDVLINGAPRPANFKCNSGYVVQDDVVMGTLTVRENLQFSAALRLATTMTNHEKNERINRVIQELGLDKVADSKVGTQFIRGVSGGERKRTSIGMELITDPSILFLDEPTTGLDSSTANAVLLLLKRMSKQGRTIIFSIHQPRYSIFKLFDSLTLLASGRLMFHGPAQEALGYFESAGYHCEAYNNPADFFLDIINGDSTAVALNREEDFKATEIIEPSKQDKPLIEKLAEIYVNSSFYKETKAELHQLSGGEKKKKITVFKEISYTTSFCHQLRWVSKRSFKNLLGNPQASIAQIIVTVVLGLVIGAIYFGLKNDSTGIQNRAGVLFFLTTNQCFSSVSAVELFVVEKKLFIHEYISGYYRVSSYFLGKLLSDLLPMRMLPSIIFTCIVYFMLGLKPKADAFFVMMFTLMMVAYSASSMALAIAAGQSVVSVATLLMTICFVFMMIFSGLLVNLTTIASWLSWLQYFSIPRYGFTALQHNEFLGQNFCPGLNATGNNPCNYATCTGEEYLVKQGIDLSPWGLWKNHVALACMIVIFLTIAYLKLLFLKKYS
# OCT2 [9] = biological target: T2, OCT2; assay: OCT2 uptake inhibition assay; type: in vitro ADME; conditions: 0.63–40 μM
# MDR1 = MDR1 (Homo sapiens, UniProt P08183); assay: MDR1 vesicular transport inhibition assay; type: in vitro ADME
# MDR1, sequence (P08183 whole entry): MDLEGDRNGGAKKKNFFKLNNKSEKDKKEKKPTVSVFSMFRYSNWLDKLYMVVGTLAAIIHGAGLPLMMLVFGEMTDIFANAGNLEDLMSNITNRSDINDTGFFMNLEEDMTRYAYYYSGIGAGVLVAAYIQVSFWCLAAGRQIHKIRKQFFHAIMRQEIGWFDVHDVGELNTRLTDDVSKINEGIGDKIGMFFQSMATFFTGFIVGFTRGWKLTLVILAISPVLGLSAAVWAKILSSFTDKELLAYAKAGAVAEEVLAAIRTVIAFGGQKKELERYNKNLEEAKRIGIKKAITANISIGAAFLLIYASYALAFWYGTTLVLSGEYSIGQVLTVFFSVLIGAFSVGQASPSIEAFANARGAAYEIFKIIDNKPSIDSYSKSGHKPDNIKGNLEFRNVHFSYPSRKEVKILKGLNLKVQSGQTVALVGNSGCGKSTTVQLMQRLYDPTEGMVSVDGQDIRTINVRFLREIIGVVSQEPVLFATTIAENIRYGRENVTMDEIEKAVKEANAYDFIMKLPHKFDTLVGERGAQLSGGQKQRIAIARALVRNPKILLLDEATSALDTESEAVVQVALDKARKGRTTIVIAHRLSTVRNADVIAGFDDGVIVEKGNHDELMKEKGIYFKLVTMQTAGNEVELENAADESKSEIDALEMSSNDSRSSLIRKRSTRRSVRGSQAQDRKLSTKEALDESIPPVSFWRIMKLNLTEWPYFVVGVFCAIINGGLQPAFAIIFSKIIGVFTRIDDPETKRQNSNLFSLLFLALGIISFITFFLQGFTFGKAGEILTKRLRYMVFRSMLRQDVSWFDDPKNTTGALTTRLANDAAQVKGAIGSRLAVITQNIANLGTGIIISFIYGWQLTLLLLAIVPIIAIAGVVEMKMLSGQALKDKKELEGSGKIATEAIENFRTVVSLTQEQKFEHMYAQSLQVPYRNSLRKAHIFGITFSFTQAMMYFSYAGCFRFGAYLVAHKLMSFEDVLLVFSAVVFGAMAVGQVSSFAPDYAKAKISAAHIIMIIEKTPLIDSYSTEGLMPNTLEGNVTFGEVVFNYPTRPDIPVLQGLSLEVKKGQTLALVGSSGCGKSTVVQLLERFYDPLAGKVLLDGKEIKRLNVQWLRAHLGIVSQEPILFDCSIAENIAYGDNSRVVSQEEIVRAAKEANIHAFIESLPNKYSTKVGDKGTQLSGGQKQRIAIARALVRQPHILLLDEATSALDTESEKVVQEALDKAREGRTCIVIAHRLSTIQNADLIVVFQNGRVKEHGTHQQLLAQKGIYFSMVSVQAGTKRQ
# [10] = transporter-expressing vs control cells, 0.04–40 µm
# [11] = first vesicular transport run, 40 µM
smiles,measurement,setting,value
"N#Cc1ccc(N2N=C3c4ccc(C(=O)N5CCC(O)CC5)nc4CC[C@@H]3[C@@H]2C2CCCC2)cc1Cl [Ocedurenone, ocedurenone]",metabolism in incubations with other recombinant CYP isoenzymes,[1],minor metabolism
same,percent CYP3A4 induction (of positive control),CYP3A4 [2],lower than 40%
same,"safety and tolerability, single ascending dose",[3],safe and well-tolerated
same,percent remaining activity of CYP3A4 (midazolam-based),"CYP3A4 [4]; ocedurenone at 200 μM, midazolam probe",70.2%
same,percent remaining activity of CYP3A4 (testosterone-based),"CYP3A4 [4]; ocedurenone at 200 μM, testosterone probe",68.1%
same,IC50,"CYP3A4 [4]; read-out: IC50 CYP3A4 (midazolam-based), midazolam probe",> 200 µM
same,IC50,"CYP3A4 [4]; read-out: IC50 CYP3A4 (testosterone-based), testosterone probe",> 200 µM
same,inhibition category CYP3A4,CYP3A4 [4]; recombinant enzyme,little or no inhibition
same,percent remaining activity of CYP2C19,CYP2C19; ocedurenone at 200 μM,78.5%
same,IC50,"CYP2C19; read-out: IC50 CYP2C19, recombinant CYP",> 200 µM
same,inhibition category CYP2C19,CYP2C19; recombinant enzyme,little or no inhibition
same,metabolism in recombinant CYP3A4 incubation,CYP3A4 [5],Most extensive metabolism
same,"Substrate, OCT2 UPT",OCT2 [6],not likely to be a substrate
same,"Maximum fold accumulation, OCT2 UPT",OCT2 [6]; [10],1.0
same,maximum inhibition of MATE1-mediated probe substrate accumulation,MATE1 [7]; at 40 µM,95%
same,IC50,"MATE1 [7]; read-out: Inhibition results (IC50), MATE1 UPT, probe metformin (10 µm), Table 1",6.7 µM
same,stability in human hepatic microsomes,human liver microsomes,stable
same,ocedurenone metabolism in HLM with chemical inhibitor added,"human liver microsomes; 1-aminobenzotriazole or ketoconazole added separately, 3 µm ocedurenone",inhibited
same,"Substrate, MATE1 UPT",MATE1 [8],not likely to be a substrate
same,"Maximum fold accumulation, MATE1 UPT",MATE1 [8]; [10],1.0
same,inhibition of BSEP at 40 µM,BSEP; [11],79%
same,maximum inhibition of BSEP-mediated transport,BSEP; repeat with 7 concentrations,71%
same,"Substrate, BCRP ML",BCRP,likely a substrate
same,interaction with human OCT2 transporter (inhibition),OCT2 [9],No interaction
same,inhibition of MDR1 at 40 µM,MDR1; [11],99%
same,IC50,"MDR1; read-out: Inhibition results (IC50), MDR1 VT, probe NMQ (1 µm)",2.5 µM
same,maximum inhibition of MDR1-mediated transport,MDR1; repeat with 7 concentrations,100%

# Reference: paper PMC10322960 (European Journal of Drug Metabolism and Pharmacokinetics, 2023)
